Measured values from patent US20100081162A1, “METHOD OF EVALUATING ANTIWRINKLE SUBSTANCE AND METHOD OF ASSESSING THE SKIN” (POLA CHEMICAL INDUSTRIES INC., priority 2007, published 2010).

Tests used:
collagen fiber bundles = experiment: Tightness in collagen fiber bundles in collagen gel with NHDF in the presence of heparin (SEM); assay type: cell-based, human
α5 protein gene (ITGA5) = experiment: Effect of farrerol on expression amount of α5 protein gene (real-time PCR); assay type: cell-based; conditions: normal human fibroblasts, 5 days
Experimental: (§1) In the normal human fibroblasts cultivated in a culture solution with or without farrerol for 5 days, the expression amounts of the integrin gene and the type-I collagen gene as a main component of dermal collagen were evaluated by the real-time PCR. The procedure followed the procedure in Example 1 except for the used primer. It should be noted that the following QuantiTect (registered trademark) Primer Assays was used as a primer. […] Specifically, the expression amount of the β1 protein gene increased by a factor of about 1.9, the expression amount of the α2 protein gene increased by a factor of about 2.6, and the expression amount of the α5 protein gene increased by a factor of about 1.7.

[1] = test system: type-I collagen gene (COL1A1, COL1A2); experiment: Effect of farrerol on expression amount of type-I collagen gene (real-time PCR); assay type: cell-based; conditions: normal human fibroblasts, 5 days
Experimental: as §1

integrin gene = experiment: Effect of farrerol on expression amount of integrin gene (real-time PCR); assay type: cell-based; conditions: normal human fibroblasts, 5 days
Experimental: as §1

α2 protein gene (ITGA2) = experiment: Effect of farrerol on expression amount of α2 protein gene (real-time PCR); assay type: cell-based; conditions: normal human fibroblasts, 5 days
Experimental: as §1

β1 protein gene (ITGB1) = experiment: Effect of farrerol on expression amount of β1 protein gene (real-time PCR); assay type: cell-based; conditions: normal human fibroblasts, 5 days
Experimental: as §1

Cc1c(O)c(C)c2c(c1O)C(=O)C[C@@H](c1ccc(O)cc1)O2 [farrerol]
effect on inhibition of tightness of collagen fiber bundles due to heparin (collagen fiber bundles; NHDF in collagen gel, 0.1% or 1% heparin, farrerol 10^−6% or 10^−7% at final, 5 days, SEM): suppressed inhibition of tightness of collagen fiber bundles due to heparin | increase in the expression amount of the α5 protein gene (factor) (α5 protein gene (ITGA5)): about 1.7 factor | expression amount of the type-I collagen gene [1]: not significantly increased | increase in the expression amount of the integrin gene (factor, with vs without farrerol) (integrin gene): ≥ 1.5 factor | increase in the expression amount of the α2 protein gene (factor) (α2 protein gene (ITGA2)): about 2.6 factor | increase in the expression amount of the β1 protein gene (factor) (β1 protein gene (ITGB1)): about 1.9 factor

Heparin
effect on tightness in collagen fiber bundles (collagen fiber bundles; heparin alone): inhibitory effect
